This note sets out measurements from US8524727B2, “Pyrimidine compound” (Astellas Pharma Inc., priority 2009, dated 2013).

One assay deals with T1, human CB2 (Homo sapiens, UniProt P34972).
T1 construct: expressed in transfected cells; host or cells: CHO cells
Put plainly: Human CB2-mediated cyclic AMP (cAMP) production inhibition assay. The class given is cell-based. Particulars: 30 nM test substance, human CB2-expressing CHO cells, forskolin 0.5 μM, 30 minutes at room temperature; for inhibition at 0.03 µM: CHO, read-out: Inh (%): inhibitory rate of cAMP increase. On the procedure:
The present test was performed using CHO cells expressing human CB2 (“Molecular Pharmacology”, 1995, vol. 48, p. 443-450).
A suspension of human CB2-expressing CHO cells (2.5×10^3/mL), and an assay medium added with a test substance and forskolin (final concentration 0.5 μM) were mixed in the equivalent amounts, and incubated at room temperature for 30 minutes. Then, the cAMP concentration in the cell lysis solution obtained by the addition of a 0.6% Triton X-100 solution was measured using a cAMP kit (manufactured by Cisbio international). The assay medium includes an α-MEM medium manufactured by Invitrogen, supplemented with 0.02% CHAPS, 1 mM isobutylmethyl xanthine, and 0.5 mg/mL bovine serum albumin. As the cAMP concentration in the cell suspension without the addition of forskolin was set as a cAMP increase rate of 0% and the cAMP concentration in the cell suspension with the addition of forskolin was set as a cAMP increase rate of 100%, the inhibitory rate of the intracellular cAMP increase at 30 nM test substance was determined.
In the table, Ex indicates Example Compound number below, and Inh indicates an inhibitory rate of cAMP increase.

Assay [1] has as its system adjuvant-induced arthritis rats. Put plainly: Inhibitory effect on hind paw weight distribution in adjuvant-induced arthritis rats. As to conditions: orally administered, female Lewis rats. The class given is in vivo. The method, then: For the experiment, female Lewis rats (7-8 week old) were used. 50 μL of inactivated Mycobacterium tuberculosis H37 Ra (manufactured by DIFCO) suspended with liquid paraffin to 10 mg/mL was administered subcutaneously into the right hindlimb footpad. The test substance was orally administered next day, the weights of the left and right hind paws after an arbitrary time were measured using Incapasitance Tester (manufactured by Columbus Instruments), and the weight distribution between left and right was calculated. As the weight distribution of the group administered with the vehicle was set as the inhibitory rate of 0% and the weight distribution of the normal group was set as the inhibitory rate of 100%, the inhibitory rate of the test substance was calculated.
In the table, Ex indicates Example Compound number below, Inh indicates an inhibitory rate of the weight distribution, and the description after to @ means the administration amount.

T1 sequence (P34972 whole entry): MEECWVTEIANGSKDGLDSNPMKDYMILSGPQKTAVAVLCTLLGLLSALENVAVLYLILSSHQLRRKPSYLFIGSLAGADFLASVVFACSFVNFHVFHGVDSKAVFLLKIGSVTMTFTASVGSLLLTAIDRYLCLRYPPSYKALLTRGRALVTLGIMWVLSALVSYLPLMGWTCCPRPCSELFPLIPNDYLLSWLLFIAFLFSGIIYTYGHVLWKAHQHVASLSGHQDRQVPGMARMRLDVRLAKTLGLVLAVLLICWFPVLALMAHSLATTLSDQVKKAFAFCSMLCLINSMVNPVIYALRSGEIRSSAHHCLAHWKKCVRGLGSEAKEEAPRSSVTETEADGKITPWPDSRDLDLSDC

Regarding `O=C(c1cnc(NC23CC4CC(CC(C4)C2)C3)nc1C(F)(F)F)N1CCC(F)(F)CC1` [Example 45], the inhibition at 0.03 µM on human CB2 turned out to be 79%.

With `CC1(C)CCN(c2ncc(C(=O)N3CCS(=O)(=O)CC3)c(C(F)(F)F)n2)c2ccccc21` [Example 55], the inhibition at 0.03 µM at human CB2 turned out to be 63%.

For the molecule `CC(C)c1nc(N[C@@H]2C[C@H]3CC[C@@H]2C3)ncc1C(=O)N1CCOCC1` [Example 64], the “Inh (%): inhibitory rate of the weight distribution” value in assay [1] (0.1 mpk) is 52@0.1 mpk %. In addition, the “Inh (%): inhibitory rate of cAMP increase” value on human CB2 is listed as 85%.

Consider `O=C(c1cnc(N[C@@H]2C[C@H]3CC[C@@H]2C3)nc1C1CC1)N1CCS(=O)(=O)CC1` [Example 67], for which, on human CB2, the inhibition at 0.03 µM is 76%.

As to `CC(C)(C)c1nc(N[C@@H]2C[C@H]3CC[C@@H]2C3)ncc1C(=O)N1CCOCC1` [Example 72], the “Inh (%): inhibitory rate of the weight distribution” value in assay [1] (0.1 mpk) is recorded as 40@0.1 mpk %. Moreover, on human CB2, the inhibition at 0.03 µM came to 99%.

For `CC(C)c1nc(N[C@H]2C[C@@H]3CC[C@H]2C3)ncc1C(=O)N1CCOCC1` [Example 79], the inhibition at 0.03 µM at human CB2 worked out at 74%.

As to `CC(C)c1nc(N[C@@H]2C[C@H]3CC[C@@H]2C3)ncc1C(=O)N1CCOCC1` [Example 83], on human CB2, the inhibition at 0.03 µM was 84%.

Regarding `O=C(c1cnc(NC23CC4CC(CC(O)(C4)C2)C3)nc1C(F)(F)F)N1CC(F)(F)C(F)(F)C1` [Example 88], on human CB2, the inhibition at 0.03 µM came to 76%.

Regarding `O=C(c1cnc(N[C@@H]2C[C@H]3CC[C@@H]2C3)nc1C(F)(F)F)N1CCS(=O)(=O)CC1` [Example 103], the “Inh (%): inhibitory rate of the weight distribution” value in assay [1] (0.3 mpk) is recorded as 41@0.3 mpk %. Further, the inhibition at 0.03 µM at human CB2 was 67%.

For `CC1(C)[C@@H]2CC[C@@]1(C)[C@@H](Nc1ncc(C(=O)N3CCS(=O)(=O)CC3)c(C(F)(F)F)n1)C2` [Example 106], the inhibition at 0.03 µM on human CB2 was determined as 74%.

With `O=C(c1cnc(NC23CC4(F)CC(F)(CC(F)(C4)C2)C3)nc1C(F)(F)F)N1CCS(=O)(=O)CC1` [Example 109], the “Inh (%): inhibitory rate of the weight distribution” value in assay [1] (0.3 mpk) is reported as 35@0.3 mpk %. For the same molecule, on human CB2, the inhibition at 0.03 µM was 80%.

Consider `O=C(c1cnc(NC23CCC(CC2)CC3)nc1C(F)(F)F)N1CCS(=O)(=O)CC1` [Example 122], for which the “Inh (%): inhibitory rate of the weight distribution” value in assay [1] (0.1 mpk) is given as 45@0.1 mpk %. Moreover, the inhibition at 0.03 µM on human CB2 came out at 70%.

Take `O=C(c1cnc(N[C@@H]2C[C@H]3CC[C@@H]2C3)nc1C(F)(F)F)N1CCS(=O)(=O)CC1` [Example 133]: on human CB2, the “Inh (%): inhibitory rate of cAMP increase” value is reported as 80%.

`O=C(c1cnc(N[C@H]2C[C@@H]3CC[C@H]2C3)nc1C(F)(F)F)N1CCS(=O)(=O)CC1` [Example 138]: the inhibition at 0.03 µM at human CB2 was found to be 49%.

On to `O=C(c1cnc(NC23CC4CC(CC(C4)C2)C3)nc1C(F)(F)F)N1CCOCC1` [Example 143], for which, on human CB2, the inhibition at 0.03 µM was determined as 70%.

Consider `FC1(F)CCN(Cc2cnc(N[C@@H]3C[C@H]4CC[C@@H]3C4)nc2C(F)(F)F)CC1` [Example 161], for which, at human CB2, the inhibition at 0.03 µM amounted to 75%.
